Values after ≈ are worked out from the molar mass of the structure shown.
What was measured:
[1] = system: Campylobacter jejuni; assay: Antibacterial activity against Campylobacter jejuni assessed as percent resistant isolates by broth microdilution method; format: functional; settings: pooled result: one value given for 2 cell lines, strains, targets or settings
[2] = system: Campylobacter coli; assay: Antibacterial activity against Campylobacter coli by broth microdilution method; format: functional
[3] = system: Campylobacter jejuni; assay: Antibacterial activity against Campylobacter jejuni assessed as percent susceptible isolates by broth microdilution method; format: functional; settings: pooled result: one value given for 2 cell lines, strains, targets or settings
[4] = system: Campylobacter jejuni; assay: Antibacterial activity against Campylobacter jejuni by broth microdilution method; format: functional
[5] = system: Vibrio parahaemolyticus; assay: Antibacterial activity against Vibrio parahaemolyticus by broth microdilution method; format: functional
[6] = system: Aeromonas caviae; assay: Antibacterial activity against Aeromonas caviae by broth microdilution method; format: functional
[7] = system: Shigella dysenteriae; assay: Antibacterial activity against Shigella dysenteriae by broth microdilution method; format: functional
[8] = system: Vibrio sp.; assay: Antibacterial activity against Vibrio sp. by broth microdilution method; format: functional
[9] = system: Salmonella typhimurium; assay: Antibacterial activity against Salmonella enterica serovar Typhimurium by broth microdilution method; format: functional, Salmonella enterica subsp. enterica serovar Typhimurium
[10] = system: Shigella sonnei; assay: Antibacterial activity against Shigella sonnei by broth microdilution method; format: functional
[11] = system: Yersinia enterocolitica; assay: Antibacterial activity against Yersinia enterocolitica by broth microdilution method; format: functional
[12] = system: Salmonella enteritidis; assay: Antibacterial activity against Salmonella enterica serovar Enteritidis by broth microdilution method; format: functional, Salmonella enterica subsp. enterica serovar Enteritidis
[13] = system: Aeromonas hydrophila; assay: Antibacterial activity against Aeromonas hydrophila by broth microdilution method; format: functional
[14] = system: Escherichia coli; assay: Antibacterial activity against Escherichia coli by broth microdilution method; format: functional
[15] = system: Vibrio alginolyticus; assay: Antibacterial activity against Vibrio alginolyticus by broth microdilution method; format: functional
[16] = system: Vibrio cholerae; assay: Antibacterial activity against Vibrio cholerae by broth microdilution method; format: functional
[17] = system: Shigella flexneri; assay: Antibacterial activity against Shigella flexneri by broth microdilution method; format: functional
[18] = system: Yersinia pseudotuberculosis; assay: Antibacterial activity against Yersinia pseudotuberculosis by broth microdilution method; format: functional
[19] = system: Aeromonas veronii; assay: Antibacterial activity against Aeromonas veronii by broth microdilution method; format: functional
[20] = system: Aeromonas sobria; assay: Antibacterial activity against Aeromonas sobria by broth microdilution method; format: functional
[21] = system: Shigella boydii; assay: Antibacterial activity against Shigella boydii by broth microdilution method; format: functional
[22] = system: Vibrio fluvialis; assay: Antibacterial activity against Vibrio fluvialis by broth microdilution method; format: functional
[23] = system: Vibrio vulnificus; assay: Antibacterial activity against Vibrio vulnificus by broth microdilution method; format: functional
[24] = system: Plesiomonas shigelloides; assay: Antibacterial activity against Plesiomonas shigelloides by broth microdilution method; format: functional

`CC[C@H]1OC(=O)[C@H](C)[C@@H](O[C@H]2C[C@@](C)(OC)[C@@H](O)[C@H](C)O2)[C@H](C)[C@@H](O[C@@H]2O[C@H](C)C[C@H](N(C)C)[C@H]2O)[C@](C)(O)C[C@@H](C)C(=O)[C@H](C)[C@@H](O)[C@]1(C)O` [ERYTHROMYCIN] showed an Activity [1] of 0%, an MIC50 [2] of 0.25 µg/mL (≈ 0.341 µM) and an MIC90 [2] of 0.5 µg/mL (≈ 0.681 µM). The Activity [3] was 100%, the MIC50 [4] was 0.25 µg/mL (≈ 0.341 µM) and the MIC90 [4] was 0.5 µg/mL (≈ 0.681 µM).

For `CO[C@H]1/C=C/O[C@@]2(C)Oc3c(C)c(O)c4c(O)c(c5c(nc6cc(C)ccn65)c4c3C2=O)NC(=O)/C(C)=C\C=C\[C@H](C)[C@H](O)[C@@H](C)[C@@H](O)[C@@H](C)[C@H](OC(C)=O)[C@@H]1C` [RIFAXIMIN], the MIC50 [5] was 0.5 µg/mL (≈ 0.636 µM), the MIC90 [5] was 1 µg/mL (≈ 1.27 µM) and the MIC50 [6] was 4 µg/mL (≈ 5.09 µM). The MIC90 [6] was 8 µg/mL (≈ 10.2 µM), the MIC50 [7] was 8 µg/mL (≈ 10.2 µM) and the MIC90 [7] was 16 µg/mL (≈ 20.4 µM). It also gave an MIC50 [8] of 0.5 µg/mL (≈ 0.636 µM), an MIC90 [8] of 1 µg/mL (≈ 1.27 µM) and an MIC50 [9] of 8 µg/mL (≈ 10.2 µM). For the same molecule, the MIC90 [9] was 16 µg/mL (≈ 20.4 µM), the MIC50 [10] was 8 µg/mL (≈ 10.2 µM) and the MIC90 [10] was 16 µg/mL (≈ 20.4 µM). It also gave an MIC50 [11] of 4 µg/mL (≈ 5.09 µM), an MIC90 [11] of 8 µg/mL (≈ 10.2 µM) and an MIC50 [2] of 32 µg/mL (≈ 40.7 µM). For the same molecule, the MIC90 [2] was 32 µg/mL (≈ 40.7 µM), the MIC50 [12] was 8 µg/mL (≈ 10.2 µM) and the MIC90 [12] was 16 µg/mL (≈ 20.4 µM). It also gave an MIC50 [13] of 4 µg/mL (≈ 5.09 µM), an MIC90 [13] of 8 µg/mL (≈ 10.2 µM) and an MIC50 [4] of 32 µg/mL (≈ 40.7 µM). For the same molecule, the MIC90 [4] was 32 µg/mL (≈ 40.7 µM), the MIC50 [14] was 8 µg/mL (≈ 10.2 µM) and the MIC90 [14] was 16 µg/mL (≈ 20.4 µM). The MIC50 [15] was 0.5 µg/mL (≈ 0.636 µM), the MIC90 [15] was 1 µg/mL (≈ 1.27 µM) and the MIC50 [16] was 0.5 µg/mL (≈ 0.636 µM). The MIC90 [16] was 1 µg/mL (≈ 1.27 µM), the MIC50 [17] was 8 µg/mL (≈ 10.2 µM) and the MIC90 [17] was 16 µg/mL (≈ 20.4 µM). It also gave an MIC50 [18] of 4 µg/mL (≈ 5.09 µM), an MIC90 [18] of 8 µg/mL (≈ 10.2 µM) and an MIC50 [19] of 4 µg/mL (≈ 5.09 µM). It also gave an MIC90 [19] of 8 µg/mL (≈ 10.2 µM), an MIC50 [20] of 4 µg/mL (≈ 5.09 µM) and an MIC90 [20] of 8 µg/mL (≈ 10.2 µM). For the same molecule, the MIC50 [21] was 8 µg/mL (≈ 10.2 µM), the MIC90 [21] was 16 µg/mL (≈ 20.4 µM) and the MIC50 [22] was 0.5 µg/mL (≈ 0.636 µM). For the same molecule, the MIC90 [22] was 1 µg/mL (≈ 1.27 µM), the MIC50 [23] was 0.5 µg/mL (≈ 0.636 µM) and the MIC90 [23] was 1 µg/mL (≈ 1.27 µM). It also gave an MIC [24] of 8 µg/mL (≈ 10.2 µM) and an MIC50 [24] of 8 µg/mL (≈ 10.2 µM).
